Holding throughout (format): functional
What all share (settings): read-out: DIZ

For assay [1], the system named is Klebsiella pneumoniae. The assay is described as follows: Antibacterial activity against clinical isolates of Klebsiella pneumoniae at 0.5 mg after overnight incubation by agar well diffusion method. (In general: Agar diffusion results depend on both activity and mobility in agar.)
Assay [2] relates to Staphylococcus epidermidis. The assay is described as follows: Antibacterial activity against clinical isolates of Staphylococcus epidermidis at 0.5 mg after overnight incubation by agar well diffusion method.
Assay [3] concerns Pseudomonas aeruginosa. The assay is described as follows: Antibacterial activity against clinical isolates of Pseudomonas aeruginosa at 0.5 mg after overnight incubation by agar well diffusion method.
Assay [4] deals with Escherichia coli. The assay is described as follows: Antibacterial activity against clinical isolates of Escherichia coli at 0.5 mg after overnight incubation by agar well diffusion method.
For assay [5], the system named is Staphylococcus aureus. The assay is described as follows: Antibacterial activity against clinical isolates of Staphylococcus aureus at 0.5 mg after overnight incubation by agar well diffusion method.
The test system of assay [6] is Bacillus subtilis. The assay is described as follows: Antibacterial activity against clinical isolates of Bacillus subtilis at 0.5 mg after overnight incubation by agar well diffusion method.
Assay [7] relates to Staphylococcus aureus. The assay is described as follows: Antibacterial activity against clinical isolates of Staphylococcus aureus at 0.05 mg after overnight incubation by agar well diffusion method.
Assay [8] relates to Escherichia coli. The assay is described as follows: Antibacterial activity against clinical isolates of Escherichia coli at 0.05 mg after overnight incubation by agar well diffusion method.
The test system of assay [9] is Klebsiella pneumoniae. The assay is described as follows: Antibacterial activity against clinical isolates of Klebsiella pneumoniae at 0.05 mg after overnight incubation by agar well diffusion method.
Assay [10] relates to Pseudomonas aeruginosa. The assay is described as follows: Antibacterial activity against clinical isolates of Pseudomonas aeruginosa at 0.05 mg after overnight incubation by agar well diffusion method.

The structures appear in SMILES notation.

Turning to `COc1ccc2cc([C@H](C)c3nnc(SCc4cn(CC(=O)Nc5c(C)cccc5C)nn4)o3)ccc2c1`, the zone of inhibition at 500 µg/disc in [1] turned out to be 9 mm; in assay [2], 12 mm; in [3], 11 mm; in assay [4], 11 mm; in assay [5] it was 13 mm; in [6], 15 mm.
As for `COc1ccc2cc([C@H](C)c3nnc(SCc4cn(-c5ccccc5)nn4)o3)ccc2c1`, the zone of inhibition at 500 µg/disc in assay [1] came out at 12 mm; in assay [2], 15 mm; in assay [3], 12 mm; in [4] it was 13 mm; in [5], 14 mm; in [6], 14 mm.
Turning to `COc1ccc2cc([C@H](C)c3nnc(SCc4cn(CC(=O)Nc5cccc(Cl)c5)nn4)o3)ccc2c1`, the zone of inhibition at 500 µg/disc in [1] worked out at 10 mm; in assay [2], 11 mm; in assay [3], 13 mm; in assay [4], 12 mm; in [5] it was 12 mm; in assay [6], 14 mm.
With `COc1ccc2cc([C@H](C)c3nnc(SCc4cn(CC(=O)Nc5ccccc5Cl)nn4)o3)ccc2c1`, the zone of inhibition at 500 µg/disc in assay [1] amounted to 14 mm; in [2], 16 mm; in assay [3] it was 14 mm; in assay [4], 13 mm; in assay [5], 15 mm; in assay [6], 15 mm.
Take `COc1ccc2cc([C@H](C)c3nnc(SCc4cn(CC(=O)Nc5ccccc5C)nn4)o3)ccc2c1`: the zone of inhibition at 500 µg/disc was determined as 13 mm in assay [1]; 15 mm in [2]; 14 mm in assay [3]; 10 mm in assay [4]; 13 mm in assay [5]; 12 mm in [6].
As for `CC(C)Cc1ccc(C(C)c2nnc(SCc3cn(CC(=O)Nc4cccc(Cl)c4)nn3)o2)cc1` (racemic), the zone of inhibition at 500 µg/disc in [1] was 11 mm; in assay [2], 13 mm; in assay [3] it was 15 mm; in assay [4] it was 12 mm; in assay [5] it was 14 mm; in [6], 12 mm.
Take `Cc1ccccc1NC(=O)Cn1cc(CSc2nnc(C(C)c3ccc(CC(C)C)cc3)o2)nn1` (racemic): the zone of inhibition at 500 µg/disc amounted to 13 mm in assay [1]; 13 mm in assay [2]; 14 mm in [3]; 13 mm in [4]; 13 mm in assay [5]; 11 mm in [6].
With `CC(C)Cc1ccc(C(C)c2nnc(SCc3cn(-c4ccccc4)nn3)o2)cc1` (racemic), the zone of inhibition at 500 µg/disc in assay [1] came to 10 mm; in [2], 9 mm; in assay [3], 11 mm; in assay [4], 10 mm; in [5], 10 mm; in assay [6] it was 11 mm.
On to `CC(C)Cc1ccc(C(C)c2nnc(SCc3cn(CC(=O)Nc4ccccc4[N+](=O)[O-])nn3)o2)cc1` (racemic), for which the zone of inhibition at 500 µg/disc in assay [1] stood at 9 mm; in [2], 10 mm; in [3], 9 mm; in [4] it was 11 mm; in assay [5], 11 mm; in assay [6], 10 mm.
`CC(C)Cc1ccc(C(C)c2nnc(SCc3cn(CC(=O)Nc4ccc(Cl)cc4)nn3)o2)cc1` (racemic): the zone of inhibition at 500 µg/disc came out at 15 mm in [1]; 15 mm in assay [2]; 14 mm in assay [3]; 15 mm in assay [4]; 11 mm in assay [5]; 16 mm in [6].
As for `NCC[C@H](O)C(=O)N[C@@H]1C[C@H](N)[C@@H](O[C@H]2O[C@H](CN)[C@@H](O)[C@H](O)[C@H]2O)[C@H](O)[C@H]1O[C@H]1O[C@H](CO)[C@@H](O)[C@H](N)[C@H]1O` [AMIKACIN], the zone of inhibition at 50 µg/disc turned out to be 23 mm in assay [7], 20 mm in assay [8], 23 mm in assay [9] and 22 mm in [10].

The values are drawn from ChEMBL document CHEMBL3860095, “1H-1,2,3-Triazolyl-substituted 1,3,4-oxadiazole derivatives containing structural features of ibuprofen/naproxen: Their synthesis and antibacterial evaluation” (2016).
